Molecular target: Lysine-specific histone demethylase 1A (Homo sapiens, UniProt O60341)
Test: In Vitro Enzyme Inhibition Assay - LSD-1
Method: The enzymatic assay of LSD1 activity is based on Time Resolved-Fluorescence Resonance Energy Transfer (TR-FRET) detection. […] Plates were read by EnVision Multilabel Reader in TR-FRET mode (excitation at 320 nm, emission at 615 nm and 665 nm) after 1 hour incubation at room temperature.

COc1ccc(-c2c(-c3ccc(C#N)c(F)c3)cc(C(=O)N3CCC[C@@H](N)C3)n2CCCC(=O)O)cc1 [US10626103, Example 41]
IC50: < 100 nM

Reference: BindingDB's records for patent US10626103 (Celgene Quanticel Research, 2020)
